Measurements: US6737383B1, “Herbicidal oxadiazolidines” (priority 1999, dated 2004)

Legend:
green foxtail = assay: Test E green foxtail; format: in vivo, Setaria viridis; settings: Preemergence
smallflower flatsedge = assay: Test B flood test smallflower flatsedge; format: in vivo, Cyperus difformis
Outline: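 Read-out is a visual response score from 0 (no effect) to 10 (complete control), assigned by comparison with untreated controls. Treatment was applied at the 2-leaf stage, and plants stayed in the greenhouse for twelve to sixteen days before scoring.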

winter wheat [1] = assay: Test E winter wheat; format: in vivo, Triticum aestivum; settings: Preemergence
blackgrass [2] = assay: Test E blackgrass; format: in vivo, Alopecurus myosuroides; settings: Preemergence
bedstraw = assay: Test B pre/postemergence bedstraw; format: in vivo, Galium aparine
Outline: (§1)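 Response is a visual 0-to-10 score relative to untreated plants, where 0 means no effect and 10 means complete control, taken twelve to sixteen days after application. Treatments went onto soil at planting and onto foliage of 1- to 4-leaf plants, using a surfactant-containing non-phytotoxic solvent.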

winter barley = assay: Test E winter barley; format: in vivo, Hordeum vulgare; settings: Preemergence
wild oat = assay: Test E wild oat; format: in vivo, Avena fatua; settings: Preemergence
Italian ryegrass = assay: Test E Italian ryegrass; format: in vivo, Lolium multiflorum; settings: Preemergence
blackgrass [3] = assay: Test B pre/postemergence blackgrass; format: in vivo, Alopecurus myosuroides
Outline: as §1

winter wheat [4] = assay: Test E winter wheat; format: in vivo, Triticum aestivum; settings: Postemergence
Description: […] All plant species were grown using normal greenhouse practices. Crop and weed species include annual bluegrass (Poa annua), blackgrass (Alopecurus myosuroides), black nightshade (Solanum nigra), chickweed (Stellaria media), common poppy (Papaver rhoeas), deadnettle (Lamium amplexicaule), downy brome (Bromus tectorum), field violet (Viola arvensis), galium (Galium aparine), green foxtail (Setaria viridis), Italian ryegrass (Lolium multiflorum), jointed goatgrass (Aegilops cylindrica), kochia (Kochia scoparia), lambsquarters (Chenopodium album), littleseed canarygrass (Phalaris minor), rape (Brassica napus), redroot pigweed (Amaranthus retroflexus), Russian thistle (Salsola kali), scentless chamomile (Matricaria inodora), spring barley (Hordeum vulgare), sugar beet (Beta vulgaris), sunflower (Helianthus annuus), ivyleaf speedwell (Veronica hederaefolia), spring wheat (Triticum aestivum), winter wheat (Triticum aestivum), wild buckwheat (Polygonum convolvulus), wild mustard (Sinapis arvensis), wild oat (Avena fatua), windgrass (Apera spica-venti) and winter barley (Hordeum vulgare).
Treated plants and untreated controls were maintained in a greenhouse for approximately 21 to 28 days, after which all treated plants were compared to untreated controls and visually evaluated. […] A dash response (-) means no test result.

surinam grass = assay: Test B pre/postemergence surinam grass; format: in vivo, Brachiaria decumbens
Outline: as §1

[5] = Rate 62 g/ha, 0 to 100 scale, 0 no effect, 100 complete control
[6] = Rate 125 g/ha, 0 to 100 scale (0 no effect, 100 complete control)
[7] = Rate 500 g/ha, 0 to 100 scale where 0 is no effect and 100 is complete control
[8] = Postemergence, Rate 62 g/ha, scale 0 to 10, 0 is no effect, 10 is complete control
[9] = Postemergence, Rate 250 g/ha, scale 0 to 10, 0 no effect, 10 complete control
[10] = Preemergence, Rate 62 g/ha, scale 0 to 10 (0 no effect, 10 complete control)
[11] = Preemergence, Rate 125 g/ha, scale 0 to 10 (0 no effect, 10 complete control)
[12] = Preemergence, Rate 250 g/ha, scale of 0 to 10 where 0 is no effect and 10 is complete control
[13] = Preemergence, Rate 500 g/ha, scale 0 to 10 (0 no effect, 10 complete control)
[14] = Rate 125 g/ha, Postemergence, scale 0 to 10, 0 no effect, 10 complete control
[15] = Postemergence, Rate 125 g/ha, scale of 0 to 10 where 0 is no effect and 10 is complete control
[16] = Rate 62 g/ha, Postemergence, scale of 0 to 10 where 0 is no effect and 10 is complete control
[17] = Rate 500 g/ha, Postemergence, scale 0 to 10, 0 no effect, 10 complete control
[18] = Rate 500 g/ha, 0 to 100 scale, 0 no effect, 100 complete control
[19] = Rate 1000 g/ha, 0 to 100 scale where 0 is no effect and 100 is complete control
[20] = Preemergence, Rate 62 g/ha, scale of 0 to 10 where 0 is no effect and 10 is complete control
[21] = Preemergence, Rate 125 g/ha, 0 is no effect, 10 is complete control
[22] = Preemergence, Rate 250 g/ha, scale 0 to 10, 0 is no effect, 10 is complete control
[23] = Rate 250 g/ha, Postemergence, scale 0 to 10, 0 is no effect, 10 is complete control
[24] = Rate 500 g/ha, Postemergence, scale 0 to 10

Compound: CCn1c(=O)on(C(=O)N(c2ccc(F)cc2F)C(C)C)c1=O [Compound 116]
- Plant response rating, Green foxtail (green foxtail; [5]): 65
- Plant response rating, Green foxtail (green foxtail; [6]): 50
- Plant response rating, Green foxtail (green foxtail; Rate 250 g/ha, 0 to 100 scale): 100
- S. Flatsedge plant response rating (smallflower flatsedge; Postemergence (flood test species), Rate 125 g/ha, scale of 0 to 10 where 0 is no effect and 10 is complete control): 0
- S. Flatsedge plant response rating (smallflower flatsedge; Pre-emergence, Rate 1000 g/ha, scale 0 to 10 (0 no effect, 10 complete control)): 0
- S. Flatsedge plant response rating (smallflower flatsedge; Rate 62 g/ha, Postemergence section, flood test species, scale of 0 to 10 where 0 is no effect and 10 is complete control): 0
- Plant response rating, S. Flatsedge (smallflower flatsedge; Rate 250 g/ha, Postemergence (flood test), scale 0 to 10, 0 is no effect, 10 is complete control): 0
- S. Flatsedge plant response rating (smallflower flatsedge; Rate 250 g/ha, headed Pre-emergence (flood test species), scale 0 to 10 (0 no effect, 10 complete control)): 0
- Plant response rating, S. Flatsedge (smallflower flatsedge; Rate 500 g/ha, headed Pre-emergence (flood test species), scale 0 to 10 (0 no effect, 10 complete control)): 0
- S. Flatsedge plant response rating (smallflower flatsedge; Rate 500 g/ha, listed under Postemergence (flood test species), scale 0 to 10, 0 no effect, 10 complete control): 0
- S. Flatsedge plant response rating (smallflower flatsedge; Rate 2000 g/ha, Pre-emergence (as headed), scale 0 to 10): 9
- Plant response rating, Wheat (winter) (winter wheat [1]; [5]): 30
- Plant response rating, Wheat (winter) (winter wheat [1]; [6]): 55
- Plant response rating, Wheat (winter) (winter wheat [1]; Rate 250 g/ha, 0 to 100 scale): 30
- Plant response rating, Wheat (winter) (winter wheat [1]; [7]): 100
- Plant response rating, Blackgrass (blackgrass [2]; [5]): 40
- Plant response rating, Blackgrass (blackgrass [2]; [6]): 50
- Plant response rating, Blackgrass (blackgrass [2]; Rate 250 g/ha, 0 to 100 scale): 45
- Plant response rating, Blackgrass (blackgrass [2]; [7]): 100
- Bedstraw plant response rating (bedstraw; [8]): 0
- Bedstraw plant response rating (bedstraw; [9]): 9
- Bedstraw plant response rating (bedstraw; [10]): 2
- Plant response rating, Bedstraw (bedstraw; [11]): 8
- Plant response rating, Bedstraw (bedstraw; [12]): 9
- Bedstraw plant response rating (bedstraw; [13]): 9
- Bedstraw plant response rating (bedstraw; [14]): 6
- Plant response rating, Barley (winter) (winter barley; [5]): 10
- Plant response rating, Barley (winter) (winter barley; [6]): 30
- Plant response rating, Barley (winter) (winter barley; Rate 250 g/ha, 0 to 100 scale): 70
- Plant response rating, Barley (winter) (winter barley; [7]): 80
- Plant response rating, Wild oat (wild oat; [5]): 20
- Plant response rating, Wild oat (wild oat; [6]): 30
- Plant response rating, Wild oat (wild oat; [7]): 80
- Plant response rating, I. Ryegrass (Italian ryegrass; [5]): 50
- Plant response rating, I. Ryegrass (Italian ryegrass; [6]): 30
- Plant response rating, I. Ryegrass (Italian ryegrass; Rate 250 g/ha, 0 to 100 scale): 60
- Plant response rating, I. Ryegrass (Italian ryegrass; [7]): 100
- Blackgrass plant response rating (blackgrass [3]; [15]): 9
- Blackgrass plant response rating (blackgrass [3]; [9]): 9
- Blackgrass plant response rating (blackgrass [3]; [10]): 9
- Plant response rating, Blackgrass (blackgrass [3]; [11]): 9
- Plant response rating, Blackgrass (blackgrass [3]; [12]): 10
- Blackgrass plant response rating (blackgrass [3]; [13]): 10
- Blackgrass plant response rating (blackgrass [3]; [16]): 9
- Blackgrass plant response rating (blackgrass [3]; [17]): 9
- Plant response rating, Wheat (winter) (winter wheat [4]; Rate 62 g/ha, 0 to 100 scale): 20
- Plant response rating, Wheat (winter) (winter wheat [4]; Rate 125 g/ha, 0 to 100 scale): 10
- Plant response rating, Wheat (winter) (winter wheat [4]; Rate 250 g/ha, 0 to 100 scale (0 no effect, 100 complete control)): 45
- Plant response rating, Wheat (winter) (winter wheat [4]; [18]): 10
- B. signalgrass plant response rating (surinam grass; [8]): 8
- B. signalgrass plant response rating (surinam grass; [9]): 9
- B. signalgrass plant response rating (surinam grass; [10]): 4
- Plant response rating, B. signalgrass (surinam grass; [11]): 8
- Plant response rating, B. signalgrass (surinam grass; [12]): 10
- B. signalgrass plant response rating (surinam grass; [13]): 10
- B. signalgrass plant response rating (surinam grass; [14]): 9
- B. signalgrass plant response rating (surinam grass; Rate 500 g/ha, Postemergence, scale of 0 to 10 where 0 is no effect and 10 is complete control): 9

Compound: CC1CCCCC1n1c(=O)on(C(=O)N(c2ccc(F)cc2)C(C)C)c1=O (centres unmarked) [Compound 161]
- Green foxtail plant response rating (0 to 100 scale) (green foxtail; Rate 250 g/ha): 60
- Plant response rating, Green foxtail (green foxtail; [7]): 70
- Plant response rating, Green foxtail (green foxtail; [19]): 90
- Wheat (winter) plant response rating (0 to 100 scale) (winter wheat [1]; Rate 250 g/ha): 10
- Plant response rating, Wheat (winter) (winter wheat [1]; [7]): 20
- Plant response rating, Wheat (winter) (winter wheat [1]; [19]): 45
- Blackgrass plant response rating (0 to 100 scale) (blackgrass [2]; Rate 250 g/ha): 30
- Plant response rating, Blackgrass (blackgrass [2]; [7]): 50
- Plant response rating, Blackgrass (blackgrass [2]; [19]): 55
- Bedstraw plant response rating (bedstraw; [15]): 3
- Bedstraw plant response rating (bedstraw; [20]): 0
- Bedstraw plant response rating (0 to 10 scale) (bedstraw; [21]): 0
- Bedstraw plant response rating (bedstraw; [22]): 0
- Bedstraw plant response rating (bedstraw; [13]): 0
- Bedstraw plant response rating (bedstraw; [16]): 0
- Plant response rating, Bedstraw (bedstraw; [23]): 4
- Bedstraw plant response rating (bedstraw; [24]): 4
- Barley (winter) plant response rating (0 to 100 scale) (winter barley; Rate 250 g/ha): 30
- Plant response rating, Barley (winter) (winter barley; [7]): 40
- Plant response rating, Barley (winter) (winter barley; [19]): 40
- Wild oat plant response rating (0 to 100 scale) (wild oat; Rate 250 g/ha): 50
- Plant response rating, Wild oat (wild oat; [7]): 50
- Plant response rating, Wild oat (wild oat; [19]): 60
- I. Ryegrass plant response rating (0 to 100 scale) (Italian ryegrass; Rate 250 g/ha): 60
- Plant response rating, I. Ryegrass (Italian ryegrass; [7]): 65
- Plant response rating, I. Ryegrass (Italian ryegrass; [19]): 85
- Blackgrass plant response rating (blackgrass [3]; [15]): 0
- Blackgrass plant response rating (blackgrass [3]; [20]): 3
- Blackgrass plant response rating (blackgrass [3]; [22]): 7
- Blackgrass plant response rating (blackgrass [3]; [13]): 9
- Blackgrass plant response rating (blackgrass [3]; [16]): 0
- Plant response rating, Blackgrass (blackgrass [3]; [23]): 3
- Blackgrass plant response rating (blackgrass [3]; [24]): 4
- Plant response rating, Wheat (winter) (winter wheat [4]; Rate 1000 g/ha, 0 to 100 scale, 0 is no effect and 100 is complete control): 50
- Plant response rating, Wheat (winter) (winter wheat [4]; [18]): 35
- Wheat (winter) plant response rating (winter wheat [4]; Rate 250 g/ha, 0 to 100 scale where 0 is no effect and 100 is complete control): 30
- B. signalgrass plant response rating (surinam grass; [15]): 0
- B. signalgrass plant response rating (surinam grass; [20]): 0
- B. signalgrass plant response rating (0 to 10 scale) (surinam grass; [21]): 0
- B. signalgrass plant response rating (surinam grass; [22]): 5
- B. signalgrass plant response rating (surinam grass; [13]): 5
- B. signalgrass plant response rating (surinam grass; [16]): 0
- Plant response rating, B. signalgrass (surinam grass; [23]): 2
- B. signalgrass plant response rating (surinam grass; [17]): 7
